The record followed here is the supplement of paper PMC3974653.

Structures can show the parent of a compound that is named as a salt.

The test system of assay [1] is MTT (mouse pheochromocytoma). The experiment in a line: IC50 of cell viability (ATP content); AC50 where efficacy is positive. To be noted: (24 or 48 h).
Assay [2] has as its system MTT (mouse pheochromocytoma). Nature of the assay: efficacy (maximal response) relative to doxorubicin = -100% and DMSO = 0%; higher = less inhibition of viability. To be noted: (24 or 48 h).

For the compound `CCCCCCNC(=O)N1\C=C(F)/C(=O)NC1=O` [CARMOFUR], the “IC50 of cell viability” value in assay [1] amounted to 1.88 µM. In addition, in assay [2], the efficacy is -56.9%.
On to `CC(=O)[C@]1(O)Cc2c(O)c3c(c(O)c2[C@@H](O[C@H]2C[C@H](N)[C@H](O)[C@H](C)O2)C1)C(=O)c1c(O)cccc1C3=O` [CARUBICINUM], for which the “IC50 of cell viability” value in assay [1] worked out at 2.99 µM. Further, in assay [2], the efficacy was -59.2%.
Take `CCCCCCCCCCCCCCCC[N+](C)(C)Cc1ccccc1.O.[Cl-]` [CETALKONIUM CHLORIDE]: the “IC50 of cell viability” value in assay [1] was 15 µM. Besides, the efficacy in assay [2] was -56.9%.
As for `CCCCCCCCCCCCCCCCOCCOCCOCCOCCOCCOCCOCCOCCOCCOCCOCCOCCOCCOCCOCCOCCOCCOCCOCCOCCO` [CETOMACROGOL EMULSIFYING WAX], the “IC50 of cell viability” value in assay [1] is 16.8 µM. In addition, in assay [2], the efficacy is -80.5%.
In the case of `CN/C(=N/C#N)NCCSCc1nc[nH]c1C` [CIMETIDINE], in assay [1], the “IC50 of cell viability” value amounted to 13.3 µM. In assay [2], the efficacy was -40.4%.
As for `Cc1c(C(=O)O)c(O)cc2c1C(=O)c1c(O)c([C@H]3O[C@H](CO)[C@@H](O)[C@H](O)[C@H]3O)c(O)c(O)c1C2=O` [COCHINEAL], the “IC50 of cell viability” value in assay [1] came out at 16.8 µM. Further, the efficacy in assay [2] was -45.4%.
As to `C[C@@]12C(=O)OC(=O)[C@@]1(C)[C@H]1CC[C@H]2O1` [Cantharidin], in assay [1], the “IC50 of cell viability” value came out at 1.28 µM. Further, the efficacy in assay [2] is -39%.
For the compound `ClC(Cl)(Cl)SN1C(=O)C2C\C=C/CC2C1=O` (stereo not given) [Captan], in assay [1], the “IC50 of cell viability” value was found to be 2.99 µM. Further, the efficacy in assay [2] is -65.8%.
In the case of `CC(=O)C1(O)Cc2c(O)c3c(c(O)c2C(OC2CC(N)C(O)C(C)O2)C1)C(=O)c1c(O)cccc1C3=O` (stereo not given) [Carminomycin], in assay [1], the “IC50 of cell viability” value came out at 2.66 µM. The efficacy in assay [2] was -48.5%.
Taken in the same sequence, the figures for `CCCCCCCCCCCCCCCC[n+]1ccccc1` [Cetylpyridinium bromide] were 10.6 µM and -96.5%.
Consider `CCCCCCCCCCCCCCCC[N+](C)(C)C` [Cetyltrimethylammonium bromide], for which, in assay [1], the “IC50 of cell viability” value was determined as 13.3 µM. In assay [2], the efficacy is -89.1%.
As for `Cc1nc2ccccc2n1Cc1ccc(Cl)cc1` [Chlormidazole], in assay [1], the “IC50 of cell viability” value is 13.3 µM. For the same compound, the efficacy in assay [2] was -59%.
As to `CN(C)C1=CC=C(C=C1)C(C2=CC=C(C=C2)N(C)C)=C/3\C=C/C(/C=C3)=[N+](C)C` [Chlorure de methylrosanilinum], the “IC50 of cell viability” value in assay [1] was found to be 23.7 µM. The efficacy in assay [2] was -111%.
For `CC/1=C/C(=O)N(O)/C(=C1)C2CCCCC2` [Ciclopirox ethanolamine], the “IC50 of cell viability” value in assay [1] turned out to be 4.53 µM. Further, the efficacy in assay [2] was -84.9%.
For `COC/1=C/C=C2\C(=C/C1=O)[C@H](CCC3=CC(=C(OC)C(=C23)OC)OC)NC(C)=O` [Colchicine], the “IC50 of cell viability” value in assay [1] came out at 0.473 µM. For the same compound, the efficacy in assay [2] is -84.8%.
As for `COc1cc(/C=C/C(=O)CC(=O)/C=C/c2ccc(O)c(OC)c2)ccc1O` [Curcumin], the “IC50 of cell viability” value in assay [1] was found to be 16.8 µM. Moreover, the efficacy in assay [2] was -79.7%.
Regarding `COC(=O)[C@H]1[C@H]2C[C@@H]3c4[nH]c5ccccc5c4CCN3C[C@H]2C[C@@H](OC(=O)c2cc(OC)c(OC)c(OC)c2)[C@@H]1OC` [DESERPIDINE], the “IC50 of cell viability” value in assay [1] was 13.3 µM. For the same compound, in assay [2], the efficacy was -92.6%.
Regarding `CCNC(=O)[C@@H]1CCCN1C(=O)[C@H](CCCNC(=N)N)NC(=O)[C@H](CC(C)C)NC(=O)[C@@H](Cc1c[nH]c2ccccc12)NC(=O)[C@H](Cc1ccc(O)cc1)NC(=O)[C@H](CO)NC(=O)[C@H](Cc1c[nH]c2ccccc12)NC(=O)[C@H](Cc1c[nH]cn1)NC(=O)[C@@H]1CCC(=O)N1` [DESLORELIN ACETATE], the “IC50 of cell viability” value in assay [1] amounted to 2.99 µM. The efficacy in assay [2] was -88.5%.
`CCN1/C(=C/C=C/C=C/c2sc3ccccc3[n+]2CC)Sc2ccccc21` [DITHIAZANINE IODIDE]: in assay [1], the “IC50 of cell viability” value stood at 18.8 µM. Besides, the efficacy in assay [2] was -109%.
Regarding `Cc1cc(N)c2ccccc2[n+]1CCCCCCCCCC[n+]1c(C)cc(N)c2ccccc21` [Dequalinium dichloride], in assay [1], the “IC50 of cell viability” value amounted to 11.4 µM. Besides, the efficacy in assay [2] is -81.5%.
Take `CCCCCCCC[N+](C)(C)CCCCCCCC` [Dioctyl Dimethyl Ammonium Chloride]: in assay [1], the “IC50 of cell viability” value was 0.119 µM. The efficacy in assay [2] was -39.1%.
With `CCCCCCCC[N+](C)(C)CCCCCCCC` [Dioctyldimethylammonium chloride], in assay [1], the “IC50 of cell viability” value was determined as 0.531 µM. In assay [2], the efficacy was -48.6%.
With `[O-][n+]1ccccc1SSc1cccc[n+]1[O-]` [Dipyrithione], in assay [1], the “IC50 of cell viability” value was determined as 1.5 µM. Further, in assay [2], the efficacy was -81%.
For `CCCCCCCCCCCC[N+](C)(C)CCOc1ccccc1` [Domiphen bromide], the “IC50 of cell viability” value in assay [1] stood at 15 µM. For the same compound, in assay [2], the efficacy was -99.3%.
As for `CC(C)(C)c1ccc(C(=O)CCCN2CCC(OC(c3ccccc3)c3ccccc3)CC2)cc1` [Ebastine], the “IC50 of cell viability” value in assay [1] came out at 9.44 µM. Further, in assay [2], the efficacy is -49.3%.
For `CCOc1ccc(Cc2nccc3cc(OCC)c(OCC)cc23)cc1OCC` [Ethaverine hydrochloride] the same measures were 3.6 µM and -60%.
Taken in the same sequence, the figures for `CCOc1ccc(/N=N/c2ccc(N)cc2N)cc1` [Ethoxazene hydrochloride] were 11.9 µM and -57.4%.
Consider `O=S(=O)([O-])c1ccc2c(/N=N/c3ccc(S(=O)(=O)[O-])c4ccccc34)c(O)c(S(=O)(=O)[O-])cc2c1` [FD & C Red Dye No. 2], for which, in assay [1], the “IC50 of cell viability” value worked out at 16.8 µM. Also, the efficacy in assay [2] was -95.8%.
For the compound `COCC(=O)NC1=CC(SC2=CC=CC=C2)=CC=C1\N=C(/NC(=O)OC)NC(=O)OC` [FEBANTEL], the “IC50 of cell viability” value in assay [1] was found to be 18.8 µM. Also, the efficacy in assay [2] is -48%.
Take `N#Cc1nn(-c2c(Cl)cc(C(F)(F)F)cc2Cl)c(N)c1[S+]([O-])C(F)(F)F` (stereo not given) [FIPRONIL]: the “IC50 of cell viability” value in assay [1] was found to be 23.7 µM. Moreover, the efficacy in assay [2] was -88.6%.
Take `O=C(Nc1cccc(C(F)(F)F)c1)c1cc(Br)cc(Br)c1O` [FLUOROSALAN]: the “IC50 of cell viability” value in assay [1] was determined as 2.66 µM. Moreover, in assay [2], the efficacy was -35.6%.
For `COC(=O)Nc1nc2cc(Sc3ccccc3)ccc2[nH]1` [Fenbendazole] the same measures were 1.01 µM and -61.4%.
Consider `CN1CC[C@@H]([C@@H](O)C1)C2=C(O)C=C(O)C3=C2O\C(=C/C3=O)C4=C(Cl)C=CC=C4` [Flavopiridol hydrochloride hydrate], for which the “IC50 of cell viability” value in assay [1] was found to be 1.88 µM. Also, in assay [2], the efficacy is -71.3%.
Turning to `Cc1cc(O)c2c3c4c(cc(O)c13)C(C)(C)C(=O)c1c(O)cc(O)c(c1-4)C2=O` [HELIOMYCINUM], the “IC50 of cell viability” value in assay [1] worked out at 3.35 µM. In assay [2], the efficacy was -46.4%.
With `CC[n+]1c(-c2ccccc2)c2cc(N)ccc2c2ccc(N)cc21.[Br-]` [HOMIDIUM BROMIDE], in assay [1], the “IC50 of cell viability” value came out at 11.9 µM. Moreover, in assay [2], the efficacy is -34.1%.
On to `COC(=O)C[C@](O)(CCCC(C)(C)O)C(=O)O[C@H]\1[C@H]2C3=CC4=C(OCO4)C=C3CCN5CCC[C@]25\C=C1OC` [Homoharringtonine], for which the “IC50 of cell viability” value in assay [1] was 0.237 µM. In addition, the efficacy in assay [2] is -73.7%.
Regarding `Cl.CCC1=C2CN3C(=O)\C4=C(/C=C3/C2=NC5=CC=C(OC(=O)N6CCC(CC6)N7CCCCC7)C=C15)[C@@](O)(CC)C(=O)OC4` [IRINOTECAN HYDROCHLORIDE], the “IC50 of cell viability” value in assay [1] is 11.9 µM. The efficacy in assay [2] was -66.8%.
Taken in the same sequence, the figures for `CCC(C(=O)C(C)C(O)C(C)CCc1ccc(C)c(O)c1C(=O)[O-])C1OC(CC)(C2CC[C@@](O)(CC)C(C)O2)CC1C.[Na+]` (stereo not given in full) [LASALOCID SODIUM] were 4.22 µM and -40.1%.
For the compound `CCCCCCCCCCCC[n+]1ccc2ccccc2c1` [LAURYL ISOQUINOLINIUM BROMIDE], the “IC50 of cell viability” value in assay [1] is 0.376 µM. Also, the efficacy in assay [2] was -31.3%.
Regarding `C[C@]12O[C@H](C[C@]1(O)CO)n1c3ccccc3c3c4c(c5c6ccccc6n2c5c31)CNC4=O` [LESTAURTINIB], in assay [1], the “IC50 of cell viability” value was 2.66 µM. For the same compound, in assay [2], the efficacy is -83.2%.
As for `CN(C)C1=CC=C(C=C1)C(=C2\C=C/C(/C=C2)=[N+](/C)C)\C3=C(O)C(=CC4=CC(=CC=C34)S([O-])(=O)=O)S([O-])(=O)=O` [LISSAMINE GREEN B], in assay [1], the “IC50 of cell viability” value was 6.68 µM. For the same compound, the efficacy in assay [2] is -54.2%.
In the case of `CN(CCCN1c2ccccc2CCc2ccccc21)CC(=O)c1ccc(Cl)cc1` [LOFEPRAMINE HYDROCHLORIDE], the “IC50 of cell viability” value in assay [1] was 26.6 µM. Besides, the efficacy in assay [2] was -62.9%.
Turning to `Oc1cccc[c]1[Hg][Cl]` [MERCUFENOL CHLORIDE], in assay [1], the “IC50 of cell viability” value was 2.99 µM. Further, the efficacy in assay [2] was -83.5%.
For `C\N=C1/C=C\C(\C=C1)=C(/C2=CC=C(C=C2)N(C)C)C3=CC=C(C=C3)N(C)C` [METHYL VIOLET] the same measures were 7.5 µM and -70.3%.
For `CO[C@@]12[C@H](COC(N)=O)C\3=C(/N1C[C@H]4N[C@@H]24)C(=O)\C(=C(N)/C3=O)C` [MITOMYCIN C] the same measures were 1.5 µM and -34.6%.
